Each structure is given as a SMILES string. Read-outs that look alike come from different tables or passages of the source.

30 compounds from patent publication US9493446B2, “Orexin receptor antagonists which are [ortho bi-(hetero-)aryl]-[2-(meta bi-(hetero-)aryl)-pyrrolidin-1-yl]-methanone derivatives” (Actelion Pharmaceuticals Ltd, priority 2012, dated 2016) can be followed below.

For one assay, the target named is orexin-1 (Homo sapiens (Human), UniProt O43613). The assay is described as follows: Intracellular calcium measurement (FLIPR), CHO cells expressing human orexin-1 receptor, 3 nM orexin-A. Type of assay: cell-based. The conditions noted are these: read-out: IC50 OX1. In outline:
(§1)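 CHO transfectants were dye-loaded (fluo-4 AM, probenecid) and exposed to antagonist for 120 min ahead of agonist.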

In another assay the target is human orexin-2 receptor (Homo sapiens (Human), UniProt O43614). The assay is described as follows: Intracellular calcium measurement (FLIPR), CHO cells expressing human orexin-2 receptor, 3 nM orexin-A. Type of assay: cell-based. The settings on record: read-out: IC50 OX2. Put shortly:
as §1

The mark [1] stands for this setting: CHO cells expressing human orexin-1 receptor, FLIPR, 3 nM orexin-A, geometric mean if determined several times.
Where [2] appears, read: CHO cells expressing human orexin-2 receptor, FLIPR, 3 nM orexin-A, geometric mean if determined several times.

Chain of orexin-1 (O43613 whole entry): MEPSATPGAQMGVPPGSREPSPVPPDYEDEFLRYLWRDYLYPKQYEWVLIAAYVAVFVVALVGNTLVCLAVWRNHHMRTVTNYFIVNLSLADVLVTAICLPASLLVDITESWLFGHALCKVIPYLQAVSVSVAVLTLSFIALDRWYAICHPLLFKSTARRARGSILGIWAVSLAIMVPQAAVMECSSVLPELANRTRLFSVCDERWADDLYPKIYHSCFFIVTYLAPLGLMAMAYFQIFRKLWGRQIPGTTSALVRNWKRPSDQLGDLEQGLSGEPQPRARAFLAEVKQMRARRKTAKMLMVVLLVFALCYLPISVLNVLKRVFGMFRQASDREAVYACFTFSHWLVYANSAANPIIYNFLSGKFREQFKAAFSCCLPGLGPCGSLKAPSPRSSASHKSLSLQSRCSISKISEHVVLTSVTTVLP
Chain of human orexin-2 receptor (O43614 whole entry): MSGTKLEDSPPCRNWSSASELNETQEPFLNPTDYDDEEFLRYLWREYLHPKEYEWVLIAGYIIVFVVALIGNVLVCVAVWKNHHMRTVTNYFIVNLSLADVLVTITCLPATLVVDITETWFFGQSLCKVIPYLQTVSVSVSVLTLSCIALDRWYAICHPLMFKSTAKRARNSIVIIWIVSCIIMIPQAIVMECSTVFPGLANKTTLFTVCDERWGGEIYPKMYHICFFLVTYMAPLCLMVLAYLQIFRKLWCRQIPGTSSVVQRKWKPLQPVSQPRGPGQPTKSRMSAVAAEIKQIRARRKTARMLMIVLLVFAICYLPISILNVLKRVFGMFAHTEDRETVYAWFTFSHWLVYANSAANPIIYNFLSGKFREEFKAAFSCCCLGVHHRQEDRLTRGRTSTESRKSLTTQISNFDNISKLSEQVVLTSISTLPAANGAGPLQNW

Take `CCOc1ccccc1-c1nnc([C@@H]2CCCN2C(=O)c2cc(C)ccc2-n2nccn2)[nH]1` [compound 495, {(S)-2-[5-(2-Ethoxy-phenyl)-4H-[1,2,4]triazol-3-yl]-pyrrolidin-1-yl}-(5-methyl-2-[1,2,3]triazol-2-yl-phenyl)-methanone]: the IC50 worked out at 39 nM at orexin-1 (setting [1]) and 38 nM at human orexin-2 receptor (setting [2]).

With `CCOc1ncccc1-c1nnc([C@@H]2CCCN2C(=O)c2cc(C)ccc2-n2nccn2)[nH]1` [compound 496, {(S)-2-[5-(2-Ethoxy-pyridin-3-yl)-4H-[1,2,4]triazol-3-yl]-pyrrolidin-1-yl}-(5-methyl-2-[1,2,3]triazol-2-yl-phenyl)-methanone], the concentration for half-maximal inhibition (IC50) was found to be 57 nM at orexin-1 (setting [1]) and 50 nM at human orexin-2 receptor (setting [2]).

`COc1c(F)cccc1-c1nnc([C@@H]2CCCN2C(=O)c2cc(C)ccc2-n2nccn2)[nH]1` [compound 497, {(S)-2-[5-(3-Fluoro-2-methoxy-phenyl)-4H-[1,2,4]triazol-3-yl]-pyrrolidin-1-yl}-(5-methyl-2-[1,2,3]triazol-2-yl-phenyl)-methanone]: the IC50 at orexin-1 (setting [1]) amounted to 49 nM; at human orexin-2 receptor (setting [2]) it was 46 nM.

For the compound `Cc1cc(-n2nccn2)c(C(=O)N2CCC[C@H]2c2nnc(-c3ccccc3OC(F)(F)F)[nH]2)cc1Cl` [compound 500], the 50% inhibitory concentration (IC50) at orexin-1 (setting [1]) was found to be 8 nM; on human orexin-2 receptor (setting [2]), 2 nM.

For `Cc1ccc(C(=O)N2CCC[C@H]2c2nnc(-c3ccccc3OC(F)(F)F)[nH]2)c(-n2nccn2)c1` [compound 501, (4-Methyl-2-[1,2,3]triazol-2-yl-phenyl)-{(S)-2-[5-(2-trifluoromethoxy-phenyl)-4H-[1,2,4]triazol-3-yl]-pyrrolidin-1-yl}-methanone], the IC50 was found to be 27 nM on orexin-1 (setting [1]) and 4 nM on human orexin-2 receptor (setting [2]).

As for `O=C(c1ccccc1-n1nccn1)N1CCC[C@H]1c1nnc(-c2ccccc2OC(F)(F)F)[nH]1` [compound 503, (2-[1,2,3]Triazol-2-yl-phenyl)-{(S)-2-[5-(2-trifluoromethoxy-phenyl)-4H-[1,2,4]triazol-3-yl]-pyrrolidin-1-yl}-methanone], the concentration for half-maximal inhibition (IC50) on orexin-1 (setting [1]) amounted to 156 nM; on human orexin-2 receptor (setting [2]), 27 nM.

Take `O=C(c1cc(Cl)ccc1-n1nccn1)N1CCC[C@H]1c1nnc(-c2ccccc2OC(F)(F)F)[nH]1` [compound 504]: the IC50 was 104 nM on orexin-1 (setting [1]) and 5 nM at human orexin-2 receptor.

As to `Cc1nc(C(=O)N2CCC[C@H]2c2nnc(-c3ccccc3OC(F)(F)F)[nH]2)c(-c2ccccc2)s1` [compound 506, (2-Methyl-5-phenyl-thiazol-4-yl)-{(S)-2-[5-(2-trifluoromethoxy-phenyl)-4H-[1,2,4]triazol-3-yl]-pyrrolidin-1-yl}-methanone], the IC50 was 171 nM at orexin-1 (setting [1]) and 116 nM on human orexin-2 receptor (setting [2]).

As for `O=C(c1ccccc1-c1ccccc1)N1CCC[C@H]1c1nnc(-c2ccccc2OC(F)(F)F)[nH]1` [compound 508, Biphenyl-2-yl-{(S)-2-[5-(2-trifluoromethoxy-phenyl)-4H-[1,2,4]triazol-3-yl]-pyrrolidin-1-yl}-methanone], the values for the IC50 at orexin-1 (setting [1]) and on human orexin-2 receptor (setting [2]) were 239 nM and 84 nM, respectively.

Consider `COc1cc(C(=O)N2CCC[C@H]2c2nnc(-c3ccccc3OC(F)(F)F)[nH]2)c(-n2nccn2)cc1Cl` [compound 509], for which the IC50 on orexin-1 (setting [1]) came to 22 nM; at human orexin-2 receptor (setting [2]), 3 nM.

For `CCc1ccccc1-c1nnc([C@@H]2CCCN2C(=O)c2cc(C)ccc2-n2nccn2)[nH]1` [compound 512, {(S)-2-[5-(2-Ethyl-phenyl)-4H-[1,2,4]triazol-3-yl]-pyrrolidin-1-yl}-(5-methyl-2-[1,2,3]triazol-2-yl-phenyl)-methanone], the IC50 at orexin-1 (setting [1]) was 652 nM; on human orexin-2 receptor (setting [2]), 80 nM.

Take `COc1cccc(-c2nnc([C@@H]3CCCN3C(=O)c3cc(C)ccc3-n3nccn3)[nH]2)c1` [compound 513, {(S)-2-[5-(3-Methoxy-phenyl)-4H-[1,2,4]triazol-3-yl]-pyrrolidin-1-yl}-(5-methyl-2-[1,2,3]triazol-2-yl-phenyl)-methanone]: the IC50 stood at 812 nM at orexin-1 (setting [1]) and 181 nM on human orexin-2 receptor (setting [2]).

Turning to `COc1ccc(-c2nnc([C@@H]3CCCN3C(=O)c3cc(C)ccc3-n3nccn3)[nH]2)cc1` [compound 514, {(S)-2-[5-(4-Methoxy-phenyl)-4H-[1,2,4]triazol-3-yl]-pyrrolidin-1-yl}-(5-methyl-2-[1,2,3]triazol-2-yl-phenyl)-methanone], the IC50 on orexin-1 (setting [1]) was above 6560 nM; on human orexin-2 receptor (setting [2]) it was 3490 nM.

Turning to `CCCOc1ccccc1-c1nnc([C@@H]2CCCN2C(=O)c2cc(C)ccc2-n2nccn2)[nH]1` [compound 515, (5-Methyl-2-[1,2,3]triazol-2-yl-phenyl)-{(S)-2-[5-(2-propoxy-phenyl)-4H-[1,2,4]triazol-3-yl]-pyrrolidin-1-yl}-methanone], the results for the IC50 at orexin-1 (setting [1]) and on human orexin-2 receptor (setting [2]) were 400 nM and 646 nM, respectively.

Turning to `Cc1ccc(C(=O)N2CCC[C@H]2c2ncc(-c3ccccc3OC(F)(F)F)[nH]2)c(-n2nccn2)c1` [compound 517, (4-Methyl-2-[1,2,3]triazol-2-yl-phenyl)-{(S)-2-[5-(2-trifluoromethoxy-phenyl)-1H-imidazol-2-yl]-pyrrolidin-1-yl}-methanone], the figures for the 50% inhibitory concentration (IC50) at orexin-1 (setting [1]) and at human orexin-2 receptor (setting [2]) were 6 nM and 2 nM, respectively.

For `CCOc1ccccc1-c1cnc([C@@H]2CCCN2C(=O)c2ccc(C)cc2-n2nccn2)[nH]1` [compound 518, {(S)-2-[5-(2-Ethoxy-phenyl)-1H-imidazol-2-yl]-pyrrolidin-1-yl}-(4-methyl-2-[1,2,3]triazol-2-yl-phenyl)-methanone], the IC50 at orexin-1 (setting [1]) stood at 2 nM; on human orexin-2 receptor (setting [2]), 1 nM.

Consider `Cc1ccc(-n2nccn2)c(C(=O)N2CCC[C@H]2c2cnc(-c3ccccc3)[nH]2)c1` [compound 519, (5-Methyl-2-[1,2,3]triazol-2-yl-phenyl)-[(S)-2-(2-phenyl-3H-imidazol-4-yl)-pyrrolidin-1-yl]-methanone], for which the results for the IC50 at orexin-1 (setting [1]) and at human orexin-2 receptor (setting [2]) were 1390 nM and 720 nM, respectively.

Regarding `Cc1ccc(-n2nccn2)c(C(=O)N2CCC[C@H]2c2cnc(-c3cccc(Cl)c3C)[nH]2)c1` [compound 521], the IC50 turned out to be 2510 nM at orexin-1 (setting [1]) and 681 nM on human orexin-2 receptor (setting [2]).

With `Cc1ccc(C(=O)N2CCC[C@H]2c2cnc(-c3cccc(Cl)c3C)[nH]2)c(-n2nccn2)c1` [compound 522], the half-inhibitory concentration (IC50) worked out at 2110 nM at orexin-1 and 367 nM at human orexin-2 receptor.

As to `Cc1ccc(-n2nccn2)c(C(=O)N2CCC[C@H]2c2ncc(-c3cccc(Cl)c3)[nH]2)c1` [compound 523], the concentration for half-maximal inhibition (IC50) on orexin-1 (setting [1]) is 428 nM; on human orexin-2 receptor (setting [2]), 103 nM.

In the case of `COc1cccc(-c2cnc([C@@H]3CCCN3C(=O)c3cc(C)ccc3-n3nccn3)[nH]2)c1` [compound 524, {(S)-2-[5-(3-Methoxy-phenyl)-1H-imidazol-2-yl]-pyrrolidin-1-yl}-(5-methyl-2-[1,2,3]triazol-2-yl-phenyl)-methanone], the half-maximal inhibitory concentration (IC50) at orexin-1 (setting [1]) was 709 nM; at human orexin-2 receptor (setting [2]) it was 45 nM.

On to `Cc1ccc(-n2nccn2)c(C(=O)N2CCC[C@H]2c2ncc(-c3cccc(Cl)c3C)[nH]2)c1` [compound 525, {(S)-2-[5-(3-Chloro-2-methyl-phenyl)-1H-imidazol-2-yl]-pyrrolidin-1-yl}-(5-methyl-2-[1,2,3]triazol-2-yl-phenyl)-methanone], for which the half-maximal inhibitory concentration (IC50) turned out to be 343 nM on orexin-1 (setting [1]) and 88 nM on human orexin-2 receptor (setting [2]).

Consider `CCOc1ccccc1-c1cnc([C@@H]2CCCN2C(=O)c2cc(C)ccc2-n2nccn2)[nH]1` [compound 526, {(S)-2-[5-(2-Ethoxy-phenyl)-1H-imidazol-2-yl]-pyrrolidin-1-yl}-(5-methyl-2-[1,2,3]triazol-2-yl-phenyl)-methanone], for which the IC50 at orexin-1 (setting [1]) came to 28 nM; on human orexin-2 receptor (setting [2]) it was 5 nM.

For the compound `Cc1ccc(-n2nccn2)c(C(=O)N2CCC[C@H]2c2ncc(-c3ccccc3)[nH]2)c1` [compound 527, (5-Methyl-2-[1,2,3]triazol-2-yl-phenyl)-[(S)-2-(5-phenyl-1H-imidazol-2-yl)-pyrrolidin-1-yl]-methanone], the figures for the IC50 at orexin-1 (setting [1]) and on human orexin-2 receptor (setting [2]) were 389 nM and 109 nM, respectively.

`Cc1ccc(-n2nccn2)c(C(=O)N2CCC[C@H]2c2ncc(-c3ccccc3C(F)(F)F)[nH]2)c1` [compound 528, (5-Methyl-2-[1,2,3]triazol-2-yl-phenyl)-{(S)-2-[5-(2-trifluoromethyl-phenyl)-1H-imidazol-2-yl]-pyrrolidin-1-yl}-methanone]: the IC50 on orexin-1 (setting [1]) was determined as 493 nM; on human orexin-2 receptor (setting [2]) it was 117 nM.

For the compound `Cc1ccc(-n2nccn2)c(C(=O)N2CCC[C@H]2c2ncc(-c3ccccc3OC(F)(F)F)[nH]2)c1` [compound 529, (5-Methyl-2-[1,2,3]triazol-2-yl-phenyl)-{(S)-2-[5-(2-trifluoromethoxy-phenyl)-1H-imidazol-2-yl]-pyrrolidin-1-yl}-methanone], the half-maximal inhibitory concentration (IC50) on orexin-1 (setting [1]) amounted to 10 nM; on human orexin-2 receptor (setting [2]), 2 nM.

For `Cc1ccc(C(=O)N2CCC[C@H]2c2cc(-c3cccc(Cl)c3C)n[nH]2)c(-n2nccn2)c1` [compound 531], the concentration for half-maximal inhibition (IC50) was found to be 255 nM on orexin-1 and 57 nM on human orexin-2 receptor (setting [2]).

In the case of `Cc1ccc(-n2nccn2)c(C(=O)N2CCC[C@H]2c2cc(-c3ccccc3OC(F)(F)F)n[nH]2)c1` [compound 532, (5-Methyl-2-[1,2,3]triazol-2-yl-phenyl)-{(S)-2-[5-(2-trifluoromethoxy-phenyl)-2H-pyrazol-3-yl]-pyrrolidin-1-yl}-methanone], the IC50 on orexin-1 (setting [1]) came out at 286 nM; on human orexin-2 receptor (setting [2]), 146 nM.

For `Cc1ccc(C(=O)N2CCC[C@H]2c2cc(-c3ccccc3OC(F)(F)F)n[nH]2)c(-n2nccn2)c1` [compound 533, (4-Methyl-2-[1,2,3]triazol-2-yl-phenyl)-{(S)-2-[5-(2-trifluoromethoxy-phenyl)-2H-pyrazol-3-yl]-pyrrolidin-1-yl}-methanone], the 50% inhibitory concentration (IC50) at orexin-1 (setting [1]) turned out to be 258 nM; on human orexin-2 receptor (setting [2]), 81 nM.

With `Cc1ccc(-n2nccn2)c(C(=O)N2CCC[C@H]2c2cc(-c3cccc(Cl)c3C)n[nH]2)c1` [compound 534], the concentration for half-maximal inhibition (IC50) was 410 nM at orexin-1 (setting [1]) and 53 nM on human orexin-2 receptor (setting [2]).
